Test results: patent publication US20240315241A1, “ANTIMICROBIAL POLYMERIC COMPOSITION” (priority 2021, published 2024)

Columns and labels:
[1] = system: blend of Pseudomonas aeruginosa ATCC 15442, Staphylococcus aureus ATCC 6538, Escherichia coli ATCC 10536, Enterococcus hirae ATCC 10541 and Candida albicans …; assay: Antimicrobial activity, zone of inhibition on TSA Petri dishes (Example 4); assay type: cell-based; details: aqueous solution pH 8.3, [Ag+]=0.1%, 100 μl, 37° C. for 24 h
Experimental: The antimicrobial activity of an aqueous solution at pH 8.3 of Na^+3[Ag^+(MPA^2−)2]^3− with an ionic concentration of [Ag+]=0.1% was tested against the following blend of microorganism strains (bought from Diagnostic International Distribution S.p.A): Pseudomonas aeruginosa ATCC 15442, Staphylococcus aureus ATCC 6538, Escherichia coli ATCC 10536, Enterococcus hirae ATCC 10541 e Candida albicans ATCC 10231. For each microbial strain, the concentration of the blend was in the range 1.5×10^12−5×10^12 unity forming colonies (UFC). A volume of 100 μl of the blend was seeded in Petri dishes containing a non-selective culture medium TSA (Tryptone Soya Agar) and a sample of 100 μl of said aqueous solution of Na^+3[Ag^+(MPA^2−)2]^3− was put in the centre of each Petri dish in contact with the microbial blend. The Petri dishes were then incubated at 37° C. for 24 h.

SARS-Cov-2 [2] = assay: Antiviral effectiveness towards SARS-Cov-2: virus incubated on treated surface, replication in VeroE6 cells by qRT-PCR; assay type: cell-based; details: for ΔCt / Logarithmic difference: Ag+ 0.108% aqueous solution on surface; for ΔCt: vs untreated; for Logarithmic difference: vs untreated control
SARS-Cov-2 [3] = assay: Cytopathic effect in VeroE6 cells infected with treated SARS-Cov-2, optical microscopy

With `Cc1nc([S-])sc1CC(=O)[O-].Cc1nc([S-])sc1CC(=O)[O-].[Ag+].[Na+].[Na+].[Na+]` [Aqueous solution containing Ag, Na^+3[Ag^+(MPA^2−)2]^3−] the “zone of inhibition (of the microbial growth)” value [1] was “circa 3 cm”, the ΔCt (SARS-Cov-2 [2]; virus 5 minutes, 24 hpi) was 3.04 and the Logarithmic difference (SARS-Cov-2 [2]; virus 5 minutes, 24 hpi) was −0.91. For the same molecule, the ΔCt (SARS-Cov-2 [2]; virus 5 minutes, 48 hpi) was 1.91, the Logarithmic difference (SARS-Cov-2 [2]; virus 5 minutes, 48 hpi) was −0.57 and the ΔCt (SARS-Cov-2 [2]; virus 5 minutes, 72 hpi) was 0.61. For the same molecule, the Logarithmic difference (SARS-Cov-2 [2]; virus 5 minutes, 72 hpi) was −0.18, the “reduction of the viral charge” value (SARS-Cov-2 [2]; Ag+ 0.108%, at a time more distant from the infection) was “not significant” and the “decrease of the viral charge” value (SARS-Cov-2 [2]; Ag+ 0.108%, virus 5 minutes, 48 pci) was 0.57 logarithms. For the same molecule, the “decrease of the viral charge” value (SARS-Cov-2 [2]; Ag+ 0.108%, virus 5 minutes, 24 h post-infection) was 0.91 logarithms, the “reduction of the viral charge” value (SARS-Cov-2 [2]; diluted aqueous solution, Ag+ 0.002%, virus 5 minutes, 24 hours post-infection) was 0.82 logarithms and the cytopathic effect (SARS-Cov-2 [3]; Ag+ 0.002%, 72 hours post-infection) was “small decrease of the cytopathic effect”. For the same molecule, the “cytopathic effect compared to cells infected with untreated virus” value (SARS-Cov-2 [3]; Ag+ 0.108%, 48 hours post-infection) was “lower cytopathic effect”.
